One compound from patent US11866405B2, “Substituted indazoles as IRAK4 inhibitors” (AstraZeneca AB, priority 2020, dated 2024) can be followed below.

Experiment [1] relates to human PBMCs stimulated with IL-1β. The experiment in a line: IL-1β-induced cytokine release in human PBMCs. Format: cell-based. The note with it: PBMC, 1 ng/mL IL-1β, 20 h. An excerpt:
In Vitro Effect of IRAK4 Inhibitors on LPS- and IL-1β-Induced Cytokine Release in Human PBMCs
To evaluate the effect and potency of IRAK4 inhibitors on blocking disease-relevant pathways in human primary immune cells, we stimulated human PBMCs (peripheral blood mononuclear cells) with LPS (TLR4 agonist) or IL-1β (IL-1R ligand) and measured the release of the proinflammatory cytokines IL-6 and TNF-α. Briefly, PBMCs were isolated from human blood, donated from healthy individuals, using LymphoPrep density gradient and plated at a cell density of 200 000 cells/well (for LPS assay) or 300 000 cells/well (for IL-1β assay) in 96-well culture plates. Cells were incubated for 1 h with serial dilutions of IRAK4 inhibitor or vehicle (DMSO) prior to stimulation of cells with 0.11 ng/mL LPS (derived from E. coli) or 1 ng/mL recombinant human IL-1β. After 4 h of LPS stimulation or 20 h of […] stimulation, the supernatant was collected and the levels of the proinflammatory cytokines TNF-α, IL-8 and IL-6 were measured by Mesoscale Discovery (MSD) multiplex assay. Dose-response curves were plotted and IC50 values were calculated with 4-parameter curve fit using GraphPad Prism 8 (see Table 3).

Experiment [2] has as its system LPS-induced lung inflammation. The experiment in a line: Mouse model of LPS-induced airway inflammation. The class given is in vivo. To be noted: mice, 5, 15 and 50 mg/kg oral, inhaled LPS 1 mg/mL, 4 h after challenge. How it is done: FIG. 1. In vivo dose response of Example 89 in an acute mouse model of LPS-induced lung inflammation. Example 89 compound was dosed orally to mice 1 h prior to inhaled LPS challenge (1 mg/mL). 4 h after the challenge, the animals were terminated and the levels of IL-6 and TNF-α released in the bronchoalveolar lavage fluid were measured. […] Individual data points represent individual animals, and bars represent the mean value of each group. Statistical differences between groups were calculated with a one-way ANOVA test comparing treatment groups to the vehicle group. **p<0.01, ***p<0.001. The ability of IRAK4 inhibitors according to the specification to reduce inflammatory cytokines and TNF-α in vivo is thus established.
In Vivo Effect of IRAK4 Inhibition in a Mouse Model of LPS-Induced Airway Inflammation
TLRs act as a first sensor of microbes and allergens in the airways and can mediate a rapid inflammatory response. A mouse model of inhaled LPS challenge was used to study the effect of IRAK4 inhibition on the processes of an acute TLR4-driven airway inflammation. […] The levels of proinflammatory cytokines were measured in the BALF supernatant using MSD multiplex assay 8 mice per treatment group were used, except for the LPS/vehicle group where 20 mice were used. […]

Experiment [3] has as its target human recombinant IRAK4 protein (Homo sapiens (Human), UniProt Q9NWZ3). Nature of the experiment: IRAK4 enzyme assay (mass spectrometry readout). The note with it: 3 mM ATP, 0.2 nM enzyme; geometric mean of at least n=2, * single experiment. The class given is biochemical. The method, boiled down: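 0.2 nM IRAK4 preincubated 15 min at room temperature with compound (10-point half-log series, top 1 μM or 10 μM) in pH 7.4 Tris buffer with 3 mM ATP; 10 μM peptide substrate added, 2 h at room temperature, formic acid stop. Phospho/unphospho peptide ratio by LC-MS/MS; potency from curve fit, geometric mean of n≥2 or single run.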

Where two headings read alike, the source gives them in different places.

Sequence of human recombinant IRAK4 protein (Q9NWZ3 whole entry): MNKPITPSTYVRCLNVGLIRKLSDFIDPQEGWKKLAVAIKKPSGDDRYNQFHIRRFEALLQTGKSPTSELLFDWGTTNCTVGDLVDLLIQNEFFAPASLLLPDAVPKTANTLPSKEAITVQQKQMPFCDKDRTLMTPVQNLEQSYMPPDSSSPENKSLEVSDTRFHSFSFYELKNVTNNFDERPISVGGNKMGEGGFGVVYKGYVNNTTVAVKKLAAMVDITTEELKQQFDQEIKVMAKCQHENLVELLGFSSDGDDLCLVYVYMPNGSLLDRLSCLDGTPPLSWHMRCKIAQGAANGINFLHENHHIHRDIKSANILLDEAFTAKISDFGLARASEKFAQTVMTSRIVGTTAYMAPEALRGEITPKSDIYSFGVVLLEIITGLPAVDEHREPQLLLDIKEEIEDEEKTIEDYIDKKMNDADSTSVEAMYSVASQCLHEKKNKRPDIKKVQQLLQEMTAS

Broadly, the IC50 is the concentration needed to halve the response being measured. Consider `COc1cc2nn([C@@H]3CC[C@@H](O)C[C@H]3C)cc2cc1C(=O)Nc1cnc2cccnn12` [Example 89, 2-((1R,2R,4R)-4-hydroxy-2-methylcyclohexyl)-N-(imidazo[1,2-b]pyridazin-3-yl)-6-methoxy-2H-indazole-5-carboxamide], for which the IC50 in experiment [1] (read-out: IC50, IL-6 read-out, IL-1β stimulation) came to 22 nM; in experiment [1] (read-out: IC50, IL-8 read-out, IL-1β stimulation), 30 nM; in experiment [3], 1.1 nM. Besides, the “levels of IL-6 in bronchoalveolar lavage fluid” value in experiment [2] is “reduced the levels of IL-6 and TNF-α upon inhaled LPS challenge, in a dose-dependent manner”. Besides, the “levels of TNF-α in bronchoalveolar lavage fluid” value in experiment [2] was “reduced the levels of IL-6 and TNF-α upon inhaled LPS challenge, in a dose-dependent manner”.
